In the supplement of paper PMC10307832 one finds relative viability data, which are given here for one cell line.

Holding throughout (test): relative viability (nuclei count vs DMSO), 5 days (fraction); higher = more cells survive
Compound in test [1]: O=c1[nH]cc(F)c(=O)[nH]1 [5-Fluorouracil] + CCNC(=O)c1noc(-c2cc(C(C)C)c(O)cc2O)c1-c1ccc(CN2CCOCC2)cc1 [Luminespib] (partner 0.01 µM)
The method in brief:
(§1)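 The day after seeding in 1536-well plates, lung cancer cell lines were treated by pin tool with a single drug, or with a fixed anchor-drug dose together with five library-drug doses (not always all listed) in √10 steps. After 5 days, a combined fix-and-stain solution (final 0.05% Triton X-100, 1% formaldehyde, 1 ug/ml Hoechst) was added. Nuclei counted on 4× images gave relative viability as treated counts over vehicle counts, reported as the median of duplicate plates.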

Compound in test [2]: CN[C@@H]1C[C@H]2O[C@@](C)([C@@H]1OC)n1c3ccccc3c3c4c(c5c6ccccc6n2c5c31)C(=O)NC4 [Staurosporine] + O=C(CCCCCCC(=O)Nc1ccccc1)NO [Vorinostat] (partner 1 µM)
The method in brief: as §1

Compound in test [3]: O=c1[nH]cc(F)c(=O)[nH]1 [5-Fluorouracil] + C[C@@H](Oc1cc(-c2cnn(C3CCNCC3)c2)cnc1N)c1c(Cl)ccc(F)c1Cl [Crizotinib] (partner 1 µM)
The method in brief:
as §1

Compound in test [4]: CN[C@@H]1C[C@H]2O[C@@](C)([C@@H]1OC)n1c3ccccc3c3c4c(c5c6ccccc6n2c5c31)C(=O)NC4 [Staurosporine] + CC1(C)CCC(c2ccc(Cl)cc2)=C(CN2CCN(c3ccc(C(=O)NS(=O)(=O)c4ccc(N[C@H](CCN5CCOCC5)CSc5ccccc5)c(S(=O)(=O)C(F)(F)F)c4)cc3)CC2)C1 [Navitoclax] (partner 0.5 µM)
The essentials:
as §1

Regarding UMC-11, the relative viability amounted to 0.954 in test [1] (first compound 0.02 µM); 0.68 in test [1] (first compound 0.2 µM); 0.516 in test [1] (first compound 0.6325 µM); 0.396 in test [1] (first compound 2 µM); 0.343 in test [2] (first compound 0.005 µM); 0.136 in test [2] (first compound 0.01581 µM). Besides, the relative viability in test [2] (first compound 0.05 µM) was determined as 0.0975; in test [2] (first compound 0.1581 µM), 0.0825; in test [2] (first compound 0.5 µM), 0.066; in test [3] (first compound 0.02 µM), 0.52; in test [3] (first compound 0.2 µM) it was 0.441; in test [3] (first compound 0.6325 µM) it was 0.303. Moreover, the relative viability in test [3] (first compound 2 µM) was 0.232; in test [4] (first compound 0.005 µM), 0.265; in test [4] (first compound 0.01581 µM), 0.158; in test [4] (first compound 0.05 µM), 0.141; in test [4] (first compound 0.1581 µM), 0.106; in test [4] (first compound 0.5 µM), 0.103.
